Assay results as given in PubChem BioAssay AID248 (DTP/NCI, 2004).
Values joined by “and” are separate entries in the source; they are usually repeats but may differ in a detail not shown here. Equal entries are not always repeated. Toxic doses and inconclusive results are not listed.

Test system: L1210 leukemia ip in BDF1 mice, survival T/C
Test: NCI In Vivo Anticancer Drug Screen. Data for tumor model L1210 Leukemia (intraperitoneal) in B6D2F1 (BDF1) mice
Details: endpoint: mean survival time, higher = longer survival
Summary of the method: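 Ratio derived from survival: compound-dosed mice over vehicle-dosed mice, all bearing a transplantable tumor.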

[1] = dose: 100.0 mg/kg/injection, schedule: Q01DX001 (ip), vehicle: saline with Tween-80
[2] = dose: 200.0 mg/kg/injection, schedule: Q01DX001 (ip), vehicle: saline with Tween-80
[3] = dose: 400.0 mg/kg/injection, schedule: Q01DX001 (ip), vehicle: saline with Tween-80
[4] = dose: 100.0 mg/kg/injection, schedule: Q04DX003 (ip), vehicle: Klucel (hydroxypropylcellulose) (HPC)
[5] = dose: 200.0 mg/kg/injection, schedule: Q04DX003 (ip), vehicle: Klucel (hydroxypropylcellulose) (HPC)
[6] = dose: 100.0 mg/kg/injection, schedule: Q01DX009 (ip), vehicle: Klucel (hydroxypropylcellulose) (HPC)
[7] = dose: 100.0 mg/kg/injection, schedule: Q01DX001 (ip), vehicle: Klucel (hydroxypropylcellulose) (HPC)
[8] = dose: 200.0 mg/kg/injection, schedule: Q01DX001 (ip), vehicle: Klucel (hydroxypropylcellulose) (HPC)
[9] = dose: 100.0 mg/kg/injection, schedule: Q01DX009 (ip), vehicle: saline with Tween-80
[10] = dose: 200.0 mg/kg/injection, schedule: Q01DX009 (ip), vehicle: saline with Tween-80
[11] = dose: 400.0 mg/kg/injection, schedule: Q01DX009 (ip), vehicle: saline with Tween-80
[12] = dose: 400.0 mg/kg/injection, schedule: Q04DX003 (ip), vehicle: Klucel (hydroxypropylcellulose) (HPC)
[13] = dose: 200.0 mg/kg/injection, schedule: Q04DX003 (ip), vehicle: saline with Tween-80
[14] = dose: 400.0 mg/kg/injection, schedule: Q04DX003 (ip), vehicle: saline with Tween-80

For `Oc1cc(O)c(CN(CCCl)CCCl)cc1CN(CCCl)CCCl`, the T/C (dose: 5.5 mg/kg/injection, schedule: Q01DX009 (ip), vehicle: saline) was 115 % of control, the T/C (dose: 8.2 mg/kg/injection, schedule: Q01DX009 (ip), vehicle: saline) was 121 % of control and the T/C (dose: 18.75 mg/kg/injection, schedule: Q01DX009 (ip), vehicle: saline) was 103 % of control. The T/C (dose: 25.0 mg/kg/injection, schedule: Q01DX009 (ip), vehicle: saline with Tween-80) was 101 % of control, the T/C (dose: 50.0 mg/kg/injection, schedule: Q01DX001 (ip), vehicle: carboxymethylcellulose (CMC)) was 115 % of control and the T/C (dose: 50.0 mg/kg/injection, schedule: Q01DX009 (ip), vehicle: saline with Tween-80) was 94 % of control. The T/C (dose: 100.0 mg/kg/injection, schedule: Q01DX001 (ip), vehicle: carboxymethylcellulose (CMC)) was 115 % of control, the T/C (dose: 100.0 mg/kg/injection, schedule: Q04DX003 (ip), vehicle: saline) was 110 % of control and the T/C (dose: 200.0 mg/kg/injection, schedule: Q01DX001 (ip), vehicle: carboxymethylcellulose (CMC)) was 108 % of control. The T/C (dose: 200.0 mg/kg/injection, schedule: Q04DX003 (ip), vehicle: saline) was 92 % of control, the T/C (dose: 400.0 mg/kg/injection, schedule: Q01DX001 (ip), vehicle: carboxymethylcellulose (CMC)) was 123 % of control and the T/C (dose: 400.0 mg/kg/injection, schedule: Q04DX003 (ip), vehicle: saline) was 90 % of control. For the same compound, the T/C (dose: 800.0 mg/kg/injection, schedule: Q04DX003 (ip), vehicle: saline) was 100 % of control.
In the case of `Cc1ccc(C(=O)NCc2ccc(CCc3nc(N)nc(N)c3-c3ccc(Cl)c(Cl)c3)cc2)cc1S(=O)(=O)F`, the T/C [1] is reported as 100 % of control, the T/C [2] is reported as 110 % of control and the T/C [3] is reported as 114 % of control.
For `O=C(O)c1ccc(C(=O)O)c(C(=O)O)c1.[NH-]C1CCCCC1[NH-].[Pt+2]`, the T/C (dose: 1.6 mg/kg/injection, schedule: Q01DX009 (ip), vehicle: sodium bicarbonate) was 198 % of control, the T/C (dose: 3.2 mg/kg/injection, schedule: Q01DX009 (ip), vehicle: sodium bicarbonate) was 256 % of control and the T/C (dose: 3.3 mg/kg/injection, schedule: Q01DX009 (ip), vehicle: saline) was 187 % of control. The T/C (dose: 4.8 mg/kg/injection, schedule: Q01DX009 (ip), vehicle: sodium bicarbonate) was 250 % of control, the T/C (dose: 6.4 mg/kg/injection, schedule: Q01DX009 (ip), vehicle: sodium bicarbonate) was 179 % of control and the T/C (dose: 6.5 mg/kg/injection, schedule: Q01DX001 (ip), vehicle: saline) was 112 % of control. The T/C (dose: 6.5 mg/kg/injection, schedule: Q01DX009 (ip), vehicle: saline) was 194 % of control, the T/C (dose: 13.0 mg/kg/injection, schedule: Q01DX001 (ip), vehicle: saline) was 115 % of control and the T/C (dose: 13.0 mg/kg/injection, schedule: Q01DX009 (ip), vehicle: saline) was 152 % of control. For the same compound, the T/C (dose: 20.0 mg/kg/injection, schedule: Q01DX001 (ip), vehicle: sodium bicarbonate) was 220 % of control, the T/C (dose: 26.0 mg/kg/injection, schedule: Q01DX009 (ip), vehicle: saline) was 102 % of control and the T/C (dose: 40.0 mg/kg/injection, schedule: Q01DX001 (ip), vehicle: sodium bicarbonate) was 205 % of control.
`N#CC1(C(O)c2ccccc2)C=Cc2ccccc2N1C(=O)c1ccccc1` (stereo not drawn) was tested, and the T/C (dose: 100.0 mg/kg/injection, schedule: Q01DX001 (ip), vehicle: steriod suspending solution) was 98 % of control and the T/C (dose: 400.0 mg/kg/injection, schedule: Q01DX001 (ip), vehicle: steriod suspending solution) was 95 % of control.
In the case of `O=c1ccccc(Br)c1O`, the T/C (dose: 100.0 mg/kg/injection, schedule: Q04DX003 (ip), vehicle: acetone) is reported as 100 % of control and the T/C (dose: 200.0 mg/kg/injection, schedule: Q04DX003 (ip), vehicle: acetone) is reported as 98 % of control.
In the case of `O=C(O)/C=C/S(=O)(=O)Cc1ccccc1`, the T/C [4] is reported as 98 % of control and the T/C [5] is reported as 100 % of control.
`NCCN1Cc2ccccc2CCc2ccccc2C1` was tested, and the T/C (dose: 25.0 mg/kg/injection, schedule: Q01DX009 (ip), vehicle: Klucel (hydroxypropylcellulose) (HPC)) was 111 % of control, the T/C (dose: 50.0 mg/kg/injection, schedule: Q01DX009 (ip), vehicle: Klucel (hydroxypropylcellulose) (HPC)) was 105 % of control and the T/C [6] was 93 % of control.
In the case of `COC(=O)C(=O)c1c(O)n(-c2ccccc2)c2ccccc12`, the T/C (dose: 25.0 mg/kg/injection, schedule: Q04DX003 (ip), vehicle: Klucel (hydroxypropylcellulose) (HPC)) is reported as 101 % of control, the T/C (dose: 50.0 mg/kg/injection, schedule: Q04DX003 (ip), vehicle: Klucel (hydroxypropylcellulose) (HPC)) is reported as 101 % of control and the T/C [4] is reported as 98 % of control.
For `S=C(NCc1ccccc1)c1ccccc1`, the T/C [7] was 106 % of control, the T/C [8] was 108 % of control and the T/C (dose: 400.0 mg/kg/injection, schedule: Q01DX001 (ip), vehicle: Klucel (hydroxypropylcellulose) (HPC)) was 104 % of control.
`C=CCNC(=O)Oc1cccc(NC(=O)N(C)C)c1` was tested, and the T/C [9] was 107 % of control, the T/C [10] was 109 % of control and the T/C [11] was 120 % of control.
For `Nc1nc2nc(N=Nc3ccc(C(=O)O)cc3)[nH]c2c(=O)[nH]1`, the T/C [4] was 96 % of control, the T/C [5] was 91 % of control and the T/C [12] was 99 % of control.
In the case of `COC1OC2COC(c3ccccc3)OC2C2OC12` (stereo not drawn), the T/C [1] is reported as 94 % of control, the T/C [9] is reported as 102 % of control and the T/C (dose: 100.0 mg/kg/injection, schedule: Q04DX002 (ip), vehicle: saline with Tween-80) is reported as 100 % of control and 90 % of control. For the same compound, the T/C (dose: 100.0 mg/kg/injection, schedule: Q04DX003 (ip), vehicle: saline with Tween-80) was 91 % of control and 86 % of control, the T/C [2] was 88 % of control and the T/C [10] was 102 % of control. The T/C (dose: 200.0 mg/kg/injection, schedule: Q04DX002 (ip), vehicle: saline with Tween-80) was 96 % of control and 111 % of control, the T/C [13] was 100 % of control and 88 % of control and the T/C [3] was 88 % of control. For the same compound, the T/C [11] was 97 % of control, the T/C (dose: 400.0 mg/kg/injection, schedule: Q04DX002 (ip), vehicle: saline with Tween-80) was 100 % of control and 97 % of control and the T/C [14] was 90 % of control and 93 % of control.
`Cc1ccc(C(O)(c2ccccc2)c2ccccc2C(=O)Nc2ccccc2)cc1` (stereo not drawn) was tested, and the T/C [9] was 95 % of control, the T/C [10] was 90 % of control and the T/C [11] was 92 % of control.
`Cc1ccc(S(=O)(=O)OCC2C3CCC(C4CCC43)C2COS(=O)(=O)c2ccc(C)cc2)cc1` (stereo not drawn) was tested, and the T/C [4] was 96 % of control, the T/C [5] was 93 % of control and the T/C [12] was 91 % of control.
With `COc1ccc(N=Cc2cccc(OC)c2O)cc1.COc1ccc(N=Cc2cccc(OC)c2O)cc1.[Co]` the T/C (dose: 50.0 mg/kg/injection, schedule: Q04DX003 (ip), vehicle: saline with Tween-80) was 92 % of control, the T/C [13] was 92 % of control and the T/C [14] was 95 % of control.
For `CC(C)(C)C1=CC(=O)N2CC=CCC2(C#N)C1=O` (stereo not drawn), the T/C (dose: 50.0 mg/kg/injection, schedule: Q01DX001 (ip), vehicle: Klucel (hydroxypropylcellulose) (HPC)) was 99 % of control, the T/C [7] was 99 % of control and the T/C [8] was 99 % of control.
With `CC(C)CC(NC(=O)C1(N)C2CC3CC(C2)CC1C3)C(=O)O` (stereo not drawn) the T/C (dose: 22.5 mg/kg/injection, schedule: Q01DX009 (ip), vehicle: Klucel (hydroxypropylcellulose) (HPC)) was 100 % of control, the T/C (dose: 45.0 mg/kg/injection, schedule: Q01DX009 (ip), vehicle: Klucel (hydroxypropylcellulose) (HPC)) was 103 % of control and the T/C (dose: 90.0 mg/kg/injection, schedule: Q01DX009 (ip), vehicle: Klucel (hydroxypropylcellulose) (HPC)) was 97 % of control. For the same compound, the T/C [6] was 108 % of control, the T/C (dose: 200.0 mg/kg/injection, schedule: Q01DX009 (ip), vehicle: Klucel (hydroxypropylcellulose) (HPC)) was 107 % of control and the T/C (dose: 400.0 mg/kg/injection, schedule: Q01DX009 (ip), vehicle: Klucel (hydroxypropylcellulose) (HPC)) was 100 % of control.
With `C=C1C(=O)O[C@@H]2[C@H]3O[C@]3(C)CCC=C(C)CC[C@@H]12` the T/C (dose: 6.25 mg/kg/injection, schedule: Q01DX009 (ip), vehicle: alcohol) was 97 % of control, the T/C (dose: 12.5 mg/kg/injection, schedule: Q01DX009 (ip), vehicle: alcohol) was 103 % of control and the T/C (dose: 25.0 mg/kg/injection, schedule: Q01DX009 (ip), vehicle: alcohol) was 95 % of control.
In the case of `Cc1nc(=S)[nH][nH]1`, the T/C [9] is reported as 102 % of control, the T/C (dose: 100.0 mg/kg/injection, schedule: Q04DX002 (ip), vehicle: saline) is reported as 103 % of control and the T/C [10] is reported as 122 % of control. The T/C (dose: 200.0 mg/kg/injection, schedule: Q04DX002 (ip), vehicle: saline) was 94 % of control, the T/C [11] was 96 % of control and the T/C (dose: 400.0 mg/kg/injection, schedule: Q04DX002 (ip), vehicle: saline) was 87 % of control.
